According to patent US12241083B2, “Macs-based purification of stem cell-derived retinal pigment epithelium” (FUJIFILM Cellular Dynamics, Inc., priority 2015, dated 2025):
“Also recorded” adds a separate entry of the source.

How the values were obtained:
Assay type in all cases: cell-based, human
[1] = test system: iPSC-derived RPE population; test: Inclusion of MEK inhibitor in RDM and RPE-MM during RPE differentiation; details: 1 μM in RDM and in RPE-MM (approximately Days 42 through 50)
Method: With regard to the methods described in Examples 2 and 3, the inclusion of PD0325901 at a concentration of 1 μM in media for certain windows of time beginning on Day 2 post iPSC plating through the end of the differentiation process, including post-MACS culture, may improve both purity of the RPE population (meaning a decrease in contaminating cells) as well as maturity of the resulting RPE population.

[2] = test system: iPSC-RPE cells; test: Immunostaining of the iPSC-RPE monolayer (beta catenin, pERM, ZO1, RPE65, p27); details: for Production of mature RPE cells: conclusion from beta catenin and RPE65 staining; for p27 staining: treated cells vs untreated (untreated: weak p27 in nucleus), higher p27 suggests cell cycle exit; for Beta catenin staining: treated iPSC-RPE cells vs untreated (untreated: beta catenin in cytoplasm)
Source text: The mature RPE cells were further developed into functional RPE cell monolayers that function as an intact RPE tissue by continued culture in the RPE-MM with additional small molecules such as primary cilium inducers like PGE2 or aphidicolin. Without being bound by theory, these primary cilium inducers suppress the canonical WNT pathway, induce cell cycle exit in the cells, and induce apical-basal polarization in the RPE monolayer. RPE maturity can alternatively be induced by canonical WNT pathway inhibitors such as IWP2 and endo-IWR1 that also induce cell cycle exit in RPE cells to promote RPE maturation. The cells were cultured in this medium for another 2-3 weeks to obtain mature and functional RPE cell monolayers. Thus, the presently disclosed methods provide mature RPE cells from pluripotent cells that can be consistently reproduced at a large scale for clinical applications.
(§1) For analysis of the mature RPE cells produced from treatment with PGE2, immunostaining of the RPE monolayer was performed to confirm the hexagonal architecture (FIGS. 4A-4C) of tight junctions by ZO1 staining as well as transmission electron microscopy of the iPSC-RPE cells (FIG. 4D).

[3] = test system: iPSC-RPE cells; test: Transmission electron microscopy of iPSC-RPE cells; details: PGE2-treated vs untreated iPSC-RPE cells
Method: as §1

[4] = test system: iPSC-derived RPE cells; test: Barrier function: transepithelial electrical resistance (TER) and potential (TEP) of the RPE monolayer
Method: To measure the barrier function of the RPE cells generated by the present methods, transepithelial electrical potential (TEP) was measured the ion gradient across the monolayer generated by energy-driven ion pumps that regulate passage across the cells, and transepithelial electrical resistance (TER) measures resistance of substances through the paracellular space mainly through the fine structure of the tight junction structure (FIG. 7A).
Functionality of the mature RPE cells treated with IWP2 or endo-IWR1 was also characterized.
(§2) Next, it was tested whether an increase in the concentration of PGE2 from 50 μM to 100 μM in the RPE-MM+PGE2 medium would improve both purity of the RPE population (i.e., a decrease in contaminating cells) as well as maturity of the resulting RPE population. To determine the maturity and functionality of the 50 μM versus 100 μM PGE2 treated cultures, the barrier function in terms of transepithelial electrical resistance (TER) was measured (FIG. 7F) to compare the resistance of substances through the paracellular space as explained in Example 9. To determine the percentage of pure RPE cells obtained after treatment of the iPSC-derived RPE cultures with 50 μM or 100 μM in the RPE-MM+PGE2 medium, flow cytometry purity assay was performed for RPE-specific markers (FIG. 7G) as described in Example 6.

[5] = test system: iPSC-derived RPE cultures; test: Flow cytometry purity assay for RPE-specific markers
Method: The flow cytometry purity assay was performed to determine the percentage of RPE cells obtained by a sorting method of the present disclosure. An aliquot of the cell suspension collected from the MACS assay (2×10^6 cells in a 5 mL FACS tube per sample) was centrifuged at 400×g for 3 min. The cell pellet was resuspended in 1 mL of a stain (e.g., Live-Dead Red stain) and incubated in the dark at room temperature for 15 min. After incubation, 2 mL of wash buffer was added and the cells were centrifuged at 400×g for 3 min to remove any unbound stain. The cell pellet was resuspended in fixation buffer and incubated in the dark at room temperature for 15 min. After incubation, 2 mL of wash buffer were added and the cells were centrifuged at 400×g for 3 min and the supernatant was decanted. The cell pellet was resuspended in 2 mL of wash buffer to make a 1×10^6 cells/mL suspension and 200 μL of the cell suspension was transferred to a FACS tube. To each tube, 2 mL of perm buffer was added and cells were centrifuged at 400×g for 3 min. Primary antibodies for the RPE-specific markers were diluted in perm buffer and 100 μL diluted antibody solution was added to each tube. After incubation overnight at 4° C. in the dark, the cells were washed in 2 mL Penn Buffer two times. Secondary antibody solution was added to each of the tubes and cells were incubated at room temperature in the dark for 1-2 hours. […]
as §2, with “To determine the percentage of pure RPE cells obtained after treatment of the iPSC-derived RPE cultures with 50 μM or 100 μM in the RPE-MM+PGE2 medium, flow cytometry purity assay was performed for RPE-specific markers (FIG. 7G) as described in Example 6.” left out

[6] = treated iPSC-RPE cells vs untreated (untreated: low in cytoplasm)
[7] = day 75, 100 μM vs 50 μM PGE2 from day 54 to day 75

SMILES | Purity and maturity of the RPE population [1] | Production of mature RPE cells [2] | p27 staining [2] | Beta catenin staining [2] | RPE65 staining [2, 6] | ZO1 staining ([2]; treated and untreated iPSC-RPE cells) | pERM (Ezrin) staining [2, 6] | Apical processes in transmission electron micrographs [3] | Functional response (TER) ([4]; 100 μM vs 50 μM PGE2 in RPE-MM+PGE2 medium, Day 54 to Day 75) | TEP and TER measurements (functionality) ([4]; treated RPE cells versus untreated RPE cells) | Purity and maturity of the RPE population ([5]; PGE2 raised from 50 μM to 100 μM in RPE-MM+PGE2, judged by TER and flow cytometry) | Expression of Best 1 marker (late maturity RPE marker) [5, 7] | Percent expression of Pmel17, Tryp1 and Cralbp (RPE-specific markers) [5, 7]
O=C(NOC[C@H](O)CO)c1ccc(F)c(F)c1Nc1ccc(I)cc1F [PD0325901, N-[(2R)-2,3-Dihydroxypropoxy]-3,4-difluoro-2-[(2-fluoro-4-iodophenyl)amino]-benzamide] | improve both purity and maturity | – | – | – | – | – | – | – | – | – | – | – | –
Cc1ccc2nc(NC(=O)CSc3nc4c(c(=O)n3-c3ccccc3)SCC4)sc2c1 [IWP2, N-(6-Methyl-2-benzothiazolyl)-2-[(3,4,6,7-tetrahydro-4-oxo-3-phenylthieno[3,2-d]pyrimidin-2-yl)thio]-acetamide] | – | produces mature RPE cells | higher p27 expression in the nucleus | decreased beta catenin; also recorded: beta catenin on cell membrane | increased RPE65; also recorded: high in the cytoplasm | – | – | – | – | – | – | – | –
CCCCC[C@H](O)/C=C/[C@H]1[C@H](O)CC(=O)[C@@H]1C/C=C\CCCC(=O)O [PGE2, prostaglandin E2] | – | produces mature RPE cells | – | decreased beta catenin; also recorded: at the membrane | increased RPE65; also recorded: high in the cytoplasm of the treated cells | at the tight junctions in the plasma membrane | high in the cytoplasm of the treated cells | more extensive apical processes | progressive increase | increased functionality | promotes both the purity and maturity | much higher | comparable expression
[Cl-].[Li+] [LiCl] | – | – | weak p27 expression in the nucleus | beta catenin in the nucleus | no staining is seen | – | – | – | – | – | – | – | –
